Measurements reported in ChEMBL document CHEMBL1144232, “Tricyclic azepine derivatives as selective brain penetrant 5-HT6 receptor antagonists” (Bioorg Med Chem Lett, 2008).
pIC50, pKi: −log10 of the molar value.

How the values were obtained:
[1] = biological target: T1, Cytochrome P450 3A4 (Homo sapiens, UniProt P08684); experiment: Inhibition of human CYP3A4 by microtiter plate assays using PPR substrate
[2] = biological target: T1, Cytochrome P450 3A4; experiment: Inhibition of human CYP3A4 by microtiter plate assays using N-N,diethyl-formamide as substrate
[3] = biological target: T2, 5-hydroxytryptamine receptor 6 (Homo sapiens, UniProt P50406); experiment: Antagonist activity at 5HT6 receptor expressed in HeLa cells assessed as 5HT-induced cAMP accumulation by chemiluminescence assay; assay type: functional, cell-based
T2 sequence (P50406 whole entry): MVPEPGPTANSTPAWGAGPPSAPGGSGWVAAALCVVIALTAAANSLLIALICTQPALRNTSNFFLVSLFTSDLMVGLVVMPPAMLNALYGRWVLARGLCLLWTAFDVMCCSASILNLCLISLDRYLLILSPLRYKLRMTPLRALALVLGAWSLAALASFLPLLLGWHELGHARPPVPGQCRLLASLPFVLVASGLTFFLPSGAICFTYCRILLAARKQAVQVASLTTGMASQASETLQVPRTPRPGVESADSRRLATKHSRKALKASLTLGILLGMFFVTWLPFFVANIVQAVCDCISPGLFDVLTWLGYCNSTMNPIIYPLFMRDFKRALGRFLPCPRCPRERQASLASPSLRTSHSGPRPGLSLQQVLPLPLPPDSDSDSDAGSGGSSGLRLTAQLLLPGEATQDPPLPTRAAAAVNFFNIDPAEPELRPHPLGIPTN

[4] = test system: Liver microsomes; experiment: Metabolic stability in rat liver microsomes assessed as intrinsic clearance at […] upto 30 mins; assay type: ADME, Microsome; settings: 0.5 h
[5] = test system: Blood; experiment: Drug level in rat blood at 1 mg/kg, po; assay type: ADME, organism-based; design: dose 1 mg/kg, route oral; settings: in vivo, read-out: Drug uptake
[6] = Ratio of drug level in brain to blood in orally dosed rat after 4 hrs; settings: brain and blood, po
[7] = biological target: 5-hydroxytryptamine receptor 6 (Rattus norvegicus) (UniProt P31388); experiment: Ex vivo displacement of [125I]258585 from 5HT6 receptor in po dosed rat striatum; assay type: organism-based
Chain of 5-hydroxytryptamine receptor 6 (Rattus norvegicus) (P31388 whole entry): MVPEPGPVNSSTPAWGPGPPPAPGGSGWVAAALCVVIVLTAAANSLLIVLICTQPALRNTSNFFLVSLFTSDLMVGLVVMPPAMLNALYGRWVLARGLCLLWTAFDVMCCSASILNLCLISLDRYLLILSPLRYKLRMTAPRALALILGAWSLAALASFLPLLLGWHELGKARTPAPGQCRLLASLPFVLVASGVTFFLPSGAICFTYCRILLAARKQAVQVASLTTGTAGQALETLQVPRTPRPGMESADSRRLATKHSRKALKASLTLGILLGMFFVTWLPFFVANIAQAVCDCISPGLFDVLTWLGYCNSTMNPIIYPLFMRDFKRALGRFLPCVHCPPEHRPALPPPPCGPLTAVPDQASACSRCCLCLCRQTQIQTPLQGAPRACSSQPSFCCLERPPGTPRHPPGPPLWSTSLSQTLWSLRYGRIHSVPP

[8] = biological target: 5-hydroxytryptamine receptor 2B (Homo sapiens, UniProt P41595); experiment: Antagonist activity at 5HT2B receptor; assay type: functional
Chain of 5-hydroxytryptamine receptor 2B (P41595 whole entry): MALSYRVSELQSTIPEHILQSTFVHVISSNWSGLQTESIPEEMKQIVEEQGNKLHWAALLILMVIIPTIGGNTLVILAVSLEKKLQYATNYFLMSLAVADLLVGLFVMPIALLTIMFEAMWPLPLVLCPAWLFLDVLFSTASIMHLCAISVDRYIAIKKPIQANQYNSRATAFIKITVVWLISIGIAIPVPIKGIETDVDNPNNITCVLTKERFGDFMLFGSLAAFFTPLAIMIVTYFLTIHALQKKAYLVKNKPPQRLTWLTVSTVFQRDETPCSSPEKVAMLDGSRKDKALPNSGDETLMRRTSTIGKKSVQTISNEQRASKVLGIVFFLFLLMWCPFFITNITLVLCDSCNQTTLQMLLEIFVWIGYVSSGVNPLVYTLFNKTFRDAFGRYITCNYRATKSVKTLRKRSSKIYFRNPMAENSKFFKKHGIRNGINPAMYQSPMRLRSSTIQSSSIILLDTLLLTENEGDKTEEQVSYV

[9] = biological target: 5-hydroxytryptamine receptor 2A (Homo sapiens, UniProt P28223); experiment: Antagonist activity at 5HT2A receptor; assay type: functional
Chain of 5-hydroxytryptamine receptor 2A (P28223 whole entry): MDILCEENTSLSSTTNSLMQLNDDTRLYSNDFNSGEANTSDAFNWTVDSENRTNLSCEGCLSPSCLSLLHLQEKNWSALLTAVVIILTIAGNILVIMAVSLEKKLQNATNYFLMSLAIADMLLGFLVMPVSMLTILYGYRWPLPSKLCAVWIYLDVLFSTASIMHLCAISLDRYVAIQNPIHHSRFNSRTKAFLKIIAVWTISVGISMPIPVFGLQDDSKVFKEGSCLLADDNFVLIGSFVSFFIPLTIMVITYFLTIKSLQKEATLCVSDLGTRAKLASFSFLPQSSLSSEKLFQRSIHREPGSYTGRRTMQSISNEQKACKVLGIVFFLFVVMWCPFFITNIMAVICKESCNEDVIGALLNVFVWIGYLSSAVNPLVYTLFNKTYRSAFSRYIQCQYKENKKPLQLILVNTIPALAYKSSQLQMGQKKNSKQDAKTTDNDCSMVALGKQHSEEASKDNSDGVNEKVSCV

[10] = biological target: T3, 5-hydroxytryptamine receptor 2C (Homo sapiens, UniProt P28335); experiment: Antagonist activity at 5HT2C receptor; assay type: functional
T3 sequence (P28335 whole entry): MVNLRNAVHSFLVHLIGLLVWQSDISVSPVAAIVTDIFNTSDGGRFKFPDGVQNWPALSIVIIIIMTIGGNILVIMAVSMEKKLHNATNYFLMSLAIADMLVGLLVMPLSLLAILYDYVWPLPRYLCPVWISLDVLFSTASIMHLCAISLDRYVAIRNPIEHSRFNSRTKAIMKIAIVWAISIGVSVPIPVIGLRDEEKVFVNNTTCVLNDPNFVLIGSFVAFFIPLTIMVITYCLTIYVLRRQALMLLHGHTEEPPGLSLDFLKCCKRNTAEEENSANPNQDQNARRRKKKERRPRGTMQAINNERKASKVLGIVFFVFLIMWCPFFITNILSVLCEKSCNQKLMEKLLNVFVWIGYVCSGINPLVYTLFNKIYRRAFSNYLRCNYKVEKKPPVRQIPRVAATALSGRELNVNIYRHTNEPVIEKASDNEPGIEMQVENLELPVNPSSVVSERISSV

[11] = biological target: T2, 5-hydroxytryptamine receptor 6; experiment: Antagonist activity at 5HT6 receptor; assay type: functional

T1 sequence (P08684 whole entry): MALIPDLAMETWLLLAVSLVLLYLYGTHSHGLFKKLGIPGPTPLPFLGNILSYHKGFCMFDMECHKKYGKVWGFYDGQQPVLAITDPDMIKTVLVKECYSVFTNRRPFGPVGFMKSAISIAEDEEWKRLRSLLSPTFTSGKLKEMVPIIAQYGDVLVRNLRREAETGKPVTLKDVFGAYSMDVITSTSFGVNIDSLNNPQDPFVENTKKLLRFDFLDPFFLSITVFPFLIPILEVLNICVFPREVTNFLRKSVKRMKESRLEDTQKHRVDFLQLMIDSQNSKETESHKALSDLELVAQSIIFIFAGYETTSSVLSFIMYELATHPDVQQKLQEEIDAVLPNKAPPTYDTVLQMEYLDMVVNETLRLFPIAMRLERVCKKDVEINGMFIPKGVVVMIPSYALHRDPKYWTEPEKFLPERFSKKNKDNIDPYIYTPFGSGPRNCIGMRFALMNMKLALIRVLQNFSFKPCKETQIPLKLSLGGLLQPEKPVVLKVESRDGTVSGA

## O=S(=O)(c1ccccc1Cl)n1ccc2cc3c(cc21)CCNCC3
[1]
  pIC50: 5.49
[2]
  pIC50: 5.60
[3]
  pKi: 8.10
[4]
  CL: 4.5 mL/min/g

## Cn1cc(S(=O)(=O)c2ccccc2)c2cc3c(cc21)CCNCC3
[1]
  pIC50: 4.89
[2]
  pIC50: 5.11
[3]
  pKi: 8.70
[4]
  CL: 4.6 mL/min/g

## COc1cccc(S(=O)(=O)n2ccc3cc4c(cc32)CCNCC4)c1
[1]
  pIC50: 4.57
[2]
  pIC50: 4.77
[3]
  pKi: 8.70
[4]
  CL: 2.7 mL/min/g

## O=S(=O)(c1ccccn1)n1ccc2cc3c(cc21)CCNCC3
[1]
  pIC50: 4.11
[2]
  pIC50: 4.41
[3]
  pKi: 7.00
[4]
  CL: 3.6 mL/min/g

## O=S(=O)(c1ccsc1)n1ccc2cc3c(cc21)CCNCC3
[1]
  pIC50: 4.66
[2]
  pIC50: 5.01
[3]
  pKi: 8.10
[4]
  CL: 21 mL/min/g

## O=S(=O)(c1cccc(Cl)c1)n1cc(Cl)c2cc3c(cc21)CCNCC3
[3]
  pKi: 8.40
[4]
  CL: < 0.5 mL/min/g

## O=S(=O)(c1cccc(Cl)c1)n1ccc2cc3c(cc21)CCNCC3
[1]
  pIC50: 5.15
[2]
  pIC50: 5.52
[3]
  pKi: 8.80
[5]
  concentration: 38 nM
[6]
  Kp at 4 h: 5
[4]
  CL: 2.5 mL/min/g

## O=S(=O)(c1ccccc1)n1cc(Cl)c2cc3c(cc21)CCNCC3
[1]
  pIC50: 4.72
[2]
  pIC50: 4.92
[7]
  ED50: 4 mg/kg
[8]
  pKi: 6.40
[3]
  pKi: 8.60
[9]
  pKi: 7.60
[4]
  CL: 1.7 mL/min/g
[10]
  pKi: 6.80

## O=S(=O)(Nc1ccc2c(c1)CCNCC2)c1ccccc1
[11]
  pKi: 8.70
[6]
  Kp at 4 h: 0.5

## O=S(=O)(c1ccccc1)N1CCCc2cc3c(cc21)CCNCC3
[3]
  pKi: 7.40

## CN1CCc2cc3ccn(S(=O)(=O)c4cccc(Cl)c4)c3cc2CC1
[1]
  pIC50: 4.15
[2]
  pIC50: 4.82
[3]
  pKi: 8.90
[4]
  CL: 22 mL/min/g

## O=S(=O)(c1ccc(Cl)cc1)n1ccc2cc3c(cc21)CCNCC3
[3]
  pKi: 8.10

## O=S(=O)(c1ccccc1)n1ccc2cc3c(cc21)CCNCC3
[1]
  pIC50: 4.70
[2]
  pIC50: 4.92
[3]
  pKi: 8.80
[4]
  CL: 7.1 mL/min/g
